Data on 22 compounds can be found in US8519149B2, “Tricyclic compounds as mPGES-1 inhibitors” (Glenmark Pharmaceuticals S.A., priority 2010, dated 2013).

pIC50: −log10 of the molar value.

The target of the test is T1, Recombinant human mPGES-1 (Homo sapiens, UniProt O14684).
T1 sequence (O14684 1-152): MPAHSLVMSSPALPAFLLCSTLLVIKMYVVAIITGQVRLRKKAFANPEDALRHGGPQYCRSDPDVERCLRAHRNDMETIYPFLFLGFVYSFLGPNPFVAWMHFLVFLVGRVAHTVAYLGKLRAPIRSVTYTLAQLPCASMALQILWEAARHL
The experiment in a line: In-vitro mPGES-1 enzyme inhibition assay (PGE2 formation from PGH2, HTRF detection). It is filed as biochemical. As to conditions: for inhibition at 1 µM: 1 μM test compound, read-out: Percentage inhibition at 1 μM; for inhibition at 1 µM / inhibition at 10 µM: recombinant human mPGES-1 microsomal fraction; for inhibition at 10 µM: 10 μM test compound, read-out: Percentage inhibition at 10 μM; for pIC50: class symbols, selected examples. An outline of the steps:
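Crude microsomal fractions containing recombinant human mPGES-1 (40-60 μg/mL protein) convert PGH2 to PGE2 in the presence of reduced glutathione, with 0.5% final DMSO. Reaction stopped with stannous chloride, and PGE2 measured by anti-PGE2 antibody (HTRF) detection. IC50 by nonlinear regression of % inhibition versus uninhibited enzyme control.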
On the technique in general: TR-FRET usually uses a lanthanide donor and a delayed reading to cut background.

For orientation: inhibition means the percentage by which the read-out fell short of the control. One may read the pIC50 as the negative decadic logarithm of the IC50, by convention in mol/L. Take `Cn1c(Nc2c(F)cccc2Cl)nc2cc(C(=O)Nc3ccc(C(F)(F)F)c[n+]3[O-])c3c(c21)CC(C)(C)O3` [Example-155, 2-(2-((2-Chloro-6-fluorophenyl)amino)-1,7,7-trimethyl-7,8-dihydro-1H-benzofuro[4,5-d]imidazole-5-carboxamido)-5-(trifluoromethyl)pyridine 1-oxide]: the inhibition at 1 µM was 87.9%, the inhibition at 10 µM was 99.8% and the pIC50 is below 7.00.

Take `CC(C)c1noc(-c2cc3nc(Nc4c(F)cccc4Cl)[nH]c3c3c2OC(C)(C)C3)n1` [Example-156, N-(2-Chloro-6-fluorophenyl)-5-(3-isopropyl-1,2,4-oxadiazol-5-yl)-7,7-dimethyl-7,8-dihydro-1H-benzofuro[4,5-d]imidazol-2-amine]: the inhibition at 1 µM came to 33.1% and the inhibition at 10 µM amounted to 92.2%.

In the case of `Cn1c(Nc2c(F)cccc2Cl)nc2cc(C(=O)Nc3ccc(C(F)(F)F)cn3)c3c(c21)CC(C)(C)O3` [Example-157, 2-((2-Chloro-6-fluorophenyl)amino)-1,7,7-trimethyl-N-(5-(trifluoromethyl)pyridin-2-yl)-7,8-dihydro-1H-benzofuro[4,5-d]imidazole-5-carboxamide], the inhibition at 1 µM was 98.9%, the inhibition at 10 µM was determined as 99.7% and the pIC50 was above 7.30.

Consider `CC1(C)Cc2c(c(C(=O)Nc3ccc(C(F)(F)F)c[n+]3[O-])cc3nc(Nc4c(F)cccc4Cl)[nH]c23)O1` [Example-158, 2-(2-((2-Chloro-6-fluorophenyl)amino)-7,7-dimethyl-7,8-dihydro-1H-benzofuro[4,5-d]imidazole-5-carboxamido)-5-(trifluoromethyl)pyridine 1-oxide], for which the inhibition at 1 µM was 77% and the inhibition at 10 µM is 97.4%.

As to `CC1(C)Cc2c(c(C(=O)Nc3cc(C4CC4)ccc3F)cc3nc(Nc4c(Cl)cccc4Cl)[nH]c23)O1` [Example-159, N-(5-Cyclopropyl-2-fluorophenyl)-2-((2,6-dichlorophenyl)amino)-7,7-dimethyl-7,8-dihydro-1H-benzofuro[4,5-d]imidazole-5-carboxamide], the inhibition at 1 µM stood at 98.9%, the inhibition at 10 µM came out at 100% and the pIC50 is above 7.30.

Regarding `Cc1cccc(Cl)c1Nc1nc2cc(C(=O)Nc3ccc(C(F)(F)F)nc3)c3c(c2[nH]1)CC(C)(C)O3` [Example-160, 2-((2-Chloro-6-methylphenyl)amino)-7,7-dimethyl-N-(6-(trifluoromethyl)pyridin-3-yl)-7,8-dihydro-1H-benzofuro[4,5-d]imidazole-5-carboxamide], the inhibition at 1 µM came to 99.2%, the inhibition at 10 µM was determined as 100% and the pIC50 was 7.00 to 7.30.

For the compound `CC1(C)Cc2c(c(-c3nc(-c4ccc(F)c(Cl)c4)no3)cc3nc(Nc4c(Cl)cccc4Cl)[nH]c23)O1` [Example-161, 5-(3-(3-Chloro-4-fluorophenyl)-1,2,4-oxadiazol-5-yl)-N-(2,6-dichlorophenyl)-7,7-dimethyl-7,8-dihydro-1H-benzofuro[4,5-d]imidazol-2-amine], the inhibition at 1 µM was determined as 79.2%, the inhibition at 10 µM turned out to be 88% and the pIC50 was below 7.00.

On to `COc1cc(OC)cc(-c2noc(-c3cc4nc(Nc5c(Cl)cccc5Cl)[nH]c4c4c3OC(C)(C)C4)n2)c1` [Example-162, N-(2,6-Dichlorophenyl)-5-(3-(3,5-dimethoxyphenyl)-1,2,4-oxadiazol-5-yl)-7,7-dimethyl-7,8-dihydro-1H-benzofuro[4,5-d]imidazol-2-amine], for which the inhibition at 1 µM came out at 62.3% and the inhibition at 10 µM is 80.8%.

On to `Cc1cccc(Cl)c1Nc1nc2cc(C(=O)Nc3ccc(C(F)(F)F)c[n+]3[O-])c3c(c2[nH]1)CC(C)(C)O3` [Example-163, 2-(2-((2-Chloro-6-methylphenyl)amino)-7,7-dimethyl-7,8-dihydro-1H-benzofuro[4,5-d]imidazole-5-carboxamido)-5-(trifluoromethyl)pyridine 1-oxide], for which the inhibition at 1 µM worked out at 62.8% and the inhibition at 10 µM worked out at 96.9%.

Turning to `Cc1cccc(Cl)c1Nc1nc2cc(C(=O)Nc3cccc(C(F)(F)F)c3F)c3c(c2[nH]1)CC(C)(C)O3` [Example-164, 2-((2-Chloro-6-methylphenyl)amino)-N-(2-fluoro-3-(trifluoromethyl)phenyl)-7,7-dimethyl-7,8-dihydro-1H-benzofuro[4,5-d]imidazole-5-carboxamide], the inhibition at 1 µM came to 93.5%, the inhibition at 10 µM worked out at 94.5% and the pIC50 was above 7.30.

On to `CC1(C)Cc2c(c(C(=O)Nc3cccc(C4CC4)c3)cc3nc(Nc4c(F)cccc4Cl)[nH]c23)O1` [Example-165, 2-((2-Chloro-6-fluorophenyl)amino)-N-(3-cyclopropylphenyl)-7,7-dimethyl-7,8-dihydro-1H-benzofuro[4,5-d]imidazole-5-carboxamide], for which the inhibition at 1 µM was 99.4%, the inhibition at 10 µM was found to be 98.1% and the pIC50 was above 7.30.

Regarding `CC1(C)Cc2c(c(C(=O)Nc3ccc(C(F)(F)F)nc3)cc3nc(Nc4c(Cl)cccc4Cl)[nH]c23)O1` [Example-166, 2-((2,6-Dichlorophenyl)amino)-7,7-dimethyl-N-(6-(trifluoromethyl)pyridin-3-yl)-7,8-dihydro-1H-benzofuro[4,5-d]imidazole-5-carboxamide], the inhibition at 1 µM was found to be 97.7% and the inhibition at 10 µM worked out at 99.6%.

As for `Cn1c(Nc2c(F)cccc2Cl)nc2cc(C(=O)Nc3ccc(C4CC4)cc3)c3c(c21)CC(C)(C)O3` [Example-167, 2-((2-Chloro-6-fluorophenyl)amino)-N-(4-cyclopropylphenyl)-1,7,7-trimethyl-7,8-dihydro-1H-benzofuro[4,5-d]imidazole-5-carboxamide], the inhibition at 1 µM worked out at 96.9%, the inhibition at 10 µM worked out at 98.3% and the pIC50 is above 7.30.

`CC1(C)Cc2c(c(C(=O)Nc3cccc(C(F)(F)F)c3F)cc3nc(Nc4c(F)cccc4Cl)[nH]c23)O1` [Example-168, 2-((2-Chloro-6-fluorophenyl)amino)-N-(2-fluoro-3-(trifluoromethyl)phenyl)-7,7-dimethyl-7,8-dihydro-1H-benzofuro[4,5-d]imidazole-5-carboxamide]: the inhibition at 1 µM was determined as 92.5%, the inhibition at 10 µM is 97.7% and the pIC50 is above 7.30.

Regarding `Cc1nc2c(o1)c(C(=O)Nc1ccc(F)cc1)cc1nc(Nc3c(Cl)cccc3Cl)[nH]c12` [Example-177, 7-[(2,6-Dichlorophenyl)amino]-N-(4-fluorophenyl)-2-methyl-8H-imidazo[4,5-e][1,3]benzoxazole-4-carboxamide], the inhibition at 1 µM was 80.8%, the inhibition at 10 µM is 89.4% and the negative logarithm of the IC50 (pIC50) was above 7.30.

Take `Cc1nc2c(o1)c(C(=O)Nc1ccc(C(F)(F)F)cc1)cc1nc(Nc3c(Cl)cccc3Cl)[nH]c12` [Example-178, 7-[(2,6-Dichlorophenyl)amino]-2-methyl-N-[4-(trifluoromethyl)phenyl]-8H-imidazo[4,5-e][1,3]benzoxazole-4-carboxamide]: the inhibition at 1 µM turned out to be 91.4%, the inhibition at 10 µM turned out to be 98.2% and the pIC50 is above 7.30.

`Cc1nc2c(o1)c(C(=O)Nc1ccc(Br)cc1)cc1nc(Nc3c(Cl)cccc3Cl)[nH]c12` [Example-179, N-(4-Bromophenyl)-7-[(2,6-dichlorophenyl)amino]-2-methyl-8H-imidazo[4,5-e][1,3]benzoxazole-4-carboxamide]: the inhibition at 1 µM is 93.7%, the inhibition at 10 µM came out at 97.4% and the pIC50 was above 7.30.

With `Cc1nc2c(o1)c(C(=O)Nc1ccc(C(C)(C)C)cc1)cc1nc(Nc3c(Cl)cccc3Cl)[nH]c12` [Example-180, N-(4-tert-Butylphenyl)-7-[(2,6-dichlorophenyl)amino]-2-methyl-8H-imidazo[4,5-e][1,3]benzoxazole-4-carboxamide], the inhibition at 1 µM came out at 98.7%, the inhibition at 10 µM amounted to 97.3% and the pIC50 is above 7.30.

Take `CCCCCCNC(=O)c1cc2nc(Nc3c(Cl)cccc3Cl)[nH]c2c2nc(C)oc12` [Example-181, 7-[(2,6-Dichlorophenyl)amino]-N-hexyl-2-methyl-8H-imidazo[4,5-e][1,3]benzoxazole-4-carboxamide]: the inhibition at 1 µM was 89.5%, the inhibition at 10 µM was 93.9% and the pIC50 was above 7.30.

`Cc1nc2c(o1)c(C(=O)NCC1CCCCC1)cc1nc(Nc3c(Cl)cccc3Cl)[nH]c12` [Example-183, N-(Cyclohexylmethyl)-7-[(2,6-dichlorophenyl)amino]-2-methyl-8H-imidazo[4,5-e][1,3]benzoxazole-4-carboxamide]: the inhibition at 1 µM was 97.5%, the inhibition at 10 µM was found to be 93.1% and the pIC50 is above 7.30.

With `CC(C)(C)c1ccc(NC(=O)c2cc3nc(Nc4c(Cl)cccc4Cl)[nH]c3c3nc(C4CC4)oc23)cc1` [Example-184, N-(4-tert-Butylphenyl)-2-cyclopropyl-7-[(2,6-dichlorophenyl)amino]-8H-imidazo[4,5-e][1,3]benzoxazole-4-carboxamide], the inhibition at 1 µM stood at 96.9%, the inhibition at 10 µM worked out at 95.9% and the pIC50 was above 7.30.

As for `O=C(Nc1cc(C(F)(F)F)ccc1F)c1cc2nc(Nc3c(F)cccc3Cl)[nH]c2c2nc(C3CC3)oc12` [Example-185, 7-((2-Chloro-6-fluorophenyl)amino)-2-cyclopropyl-N-(2-fluoro-5-(trifluoromethyl)phenyl)-8H-imidazo[4′,5′:5,6]benzo[1,2-d]oxazole-4-carboxamide], the inhibition at 1 µM came to 94.4%, the inhibition at 10 µM was found to be 98.5% and the pIC50 was above 7.30.
